Legend:
[1] = system: P. falciparum blood stage; conditions: result in words
CRL-8155 cells = experiment: cells; conditions: Homo sapiens, CRL8155, read-out: CRL8155 EC50
HepG2 cells = experiment: cells; conditions: Homo sapiens, HepG2, read-out: HepG2 EC50
PfCDPK1 = PfCDPK1 (Plasmodium falciparum, UniProt P62344); experiment: biochemical
recombinant PfPKG = recombinant PfPKG (Plasmodium falciparum, UniProt Q8I719); experiment: biochemical
recombinant PfCDPK4 = recombinant PfCDPK4 (Plasmodium falciparum, UniProt Q8IBS5); experiment: biochemical
hERG = hERG (Homo sapiens, UniProt Q12809); conditions: cited from earlier work
[2] = cited from earlier work

Chain of PfCDPK1 (P62344 whole entry): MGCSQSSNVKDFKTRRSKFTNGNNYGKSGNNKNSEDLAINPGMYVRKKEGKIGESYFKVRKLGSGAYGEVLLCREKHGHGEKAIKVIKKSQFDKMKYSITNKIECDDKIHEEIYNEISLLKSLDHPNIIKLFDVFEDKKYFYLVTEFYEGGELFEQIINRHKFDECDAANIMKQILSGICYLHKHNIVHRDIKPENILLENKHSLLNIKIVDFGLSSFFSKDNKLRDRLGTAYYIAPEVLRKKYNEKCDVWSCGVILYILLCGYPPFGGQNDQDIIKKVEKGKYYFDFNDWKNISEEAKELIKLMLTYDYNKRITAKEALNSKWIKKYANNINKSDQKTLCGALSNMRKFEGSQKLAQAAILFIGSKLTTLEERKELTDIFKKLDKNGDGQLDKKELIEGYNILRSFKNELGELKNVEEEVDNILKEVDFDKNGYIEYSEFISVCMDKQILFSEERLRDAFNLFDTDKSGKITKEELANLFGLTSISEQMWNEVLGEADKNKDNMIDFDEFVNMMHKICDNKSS
Chain of recombinant PfPKG (Q8I719 whole entry): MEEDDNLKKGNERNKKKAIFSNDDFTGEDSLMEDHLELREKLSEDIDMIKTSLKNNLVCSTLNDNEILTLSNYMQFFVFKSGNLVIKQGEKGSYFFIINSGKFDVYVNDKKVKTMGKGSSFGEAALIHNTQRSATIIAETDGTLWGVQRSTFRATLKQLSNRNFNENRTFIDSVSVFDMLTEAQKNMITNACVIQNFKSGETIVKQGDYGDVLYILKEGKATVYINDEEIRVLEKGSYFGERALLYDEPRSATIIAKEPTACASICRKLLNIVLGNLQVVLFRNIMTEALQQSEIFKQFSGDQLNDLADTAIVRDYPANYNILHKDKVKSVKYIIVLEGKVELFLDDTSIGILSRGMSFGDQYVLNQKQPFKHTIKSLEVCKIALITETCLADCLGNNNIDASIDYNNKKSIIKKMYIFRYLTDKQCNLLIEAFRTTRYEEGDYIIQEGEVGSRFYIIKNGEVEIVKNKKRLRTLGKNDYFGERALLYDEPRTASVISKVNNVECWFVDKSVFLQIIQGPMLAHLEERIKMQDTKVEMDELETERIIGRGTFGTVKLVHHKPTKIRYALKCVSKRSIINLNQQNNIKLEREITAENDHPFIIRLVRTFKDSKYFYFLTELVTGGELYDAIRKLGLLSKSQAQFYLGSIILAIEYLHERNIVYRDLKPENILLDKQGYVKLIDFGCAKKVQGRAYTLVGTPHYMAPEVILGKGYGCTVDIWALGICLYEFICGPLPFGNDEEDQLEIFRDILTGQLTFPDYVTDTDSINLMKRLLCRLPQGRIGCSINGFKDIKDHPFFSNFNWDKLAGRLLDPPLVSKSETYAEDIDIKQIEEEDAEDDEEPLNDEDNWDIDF
Chain of hERG (Q12809 whole entry): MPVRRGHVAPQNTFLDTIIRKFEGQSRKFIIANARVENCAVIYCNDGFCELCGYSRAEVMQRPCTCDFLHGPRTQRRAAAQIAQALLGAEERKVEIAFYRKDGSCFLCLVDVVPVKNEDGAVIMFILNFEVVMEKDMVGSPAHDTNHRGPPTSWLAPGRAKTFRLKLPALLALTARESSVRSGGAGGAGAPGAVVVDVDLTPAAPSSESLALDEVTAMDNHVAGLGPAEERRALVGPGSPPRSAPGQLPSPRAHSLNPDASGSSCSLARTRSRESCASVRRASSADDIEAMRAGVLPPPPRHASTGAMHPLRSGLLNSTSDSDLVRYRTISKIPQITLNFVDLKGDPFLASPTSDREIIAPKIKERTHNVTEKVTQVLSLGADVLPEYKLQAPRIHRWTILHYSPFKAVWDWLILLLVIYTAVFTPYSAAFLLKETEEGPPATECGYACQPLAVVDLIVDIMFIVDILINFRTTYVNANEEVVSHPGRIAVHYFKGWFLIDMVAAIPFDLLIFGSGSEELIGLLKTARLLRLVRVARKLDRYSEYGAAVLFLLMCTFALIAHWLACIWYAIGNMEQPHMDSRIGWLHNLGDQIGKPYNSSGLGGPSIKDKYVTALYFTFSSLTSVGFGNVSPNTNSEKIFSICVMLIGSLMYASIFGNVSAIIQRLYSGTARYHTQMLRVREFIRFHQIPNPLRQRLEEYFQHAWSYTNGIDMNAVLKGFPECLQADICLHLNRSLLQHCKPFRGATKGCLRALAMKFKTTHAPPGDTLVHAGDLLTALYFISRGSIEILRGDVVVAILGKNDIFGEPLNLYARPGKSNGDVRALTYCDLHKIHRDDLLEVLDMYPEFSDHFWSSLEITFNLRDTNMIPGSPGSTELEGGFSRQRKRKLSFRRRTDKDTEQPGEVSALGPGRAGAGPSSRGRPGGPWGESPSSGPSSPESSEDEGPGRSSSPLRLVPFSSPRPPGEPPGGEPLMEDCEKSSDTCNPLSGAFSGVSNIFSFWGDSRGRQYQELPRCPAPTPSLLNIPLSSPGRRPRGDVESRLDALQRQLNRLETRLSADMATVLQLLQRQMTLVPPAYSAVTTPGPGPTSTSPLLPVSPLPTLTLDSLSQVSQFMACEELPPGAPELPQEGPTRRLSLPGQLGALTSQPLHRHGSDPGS
Chain of recombinant PfCDPK4 (Q8IBS5 whole entry): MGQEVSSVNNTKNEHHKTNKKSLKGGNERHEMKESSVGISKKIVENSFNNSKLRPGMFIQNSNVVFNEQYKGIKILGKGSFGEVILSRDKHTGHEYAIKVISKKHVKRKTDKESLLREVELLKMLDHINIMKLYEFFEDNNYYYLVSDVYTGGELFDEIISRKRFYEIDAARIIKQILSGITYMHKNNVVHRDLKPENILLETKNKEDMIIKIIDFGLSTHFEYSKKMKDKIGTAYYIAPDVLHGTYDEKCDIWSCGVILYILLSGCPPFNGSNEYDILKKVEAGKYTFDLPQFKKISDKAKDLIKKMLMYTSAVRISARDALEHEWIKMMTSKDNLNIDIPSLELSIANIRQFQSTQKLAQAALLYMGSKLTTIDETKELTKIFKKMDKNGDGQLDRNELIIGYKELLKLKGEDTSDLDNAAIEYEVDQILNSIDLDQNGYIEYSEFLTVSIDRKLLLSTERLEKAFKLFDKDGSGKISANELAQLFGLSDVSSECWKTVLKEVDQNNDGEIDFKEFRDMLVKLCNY

EC50 (CRL-8155 cells)	EC50 (HepG2 cells)	Structure (SMILES)	IC50 (PfCDPK1)	also measured
> 30 µM	> 30 µM	CC(C)(C)n1nc(-c2ccc3cc(O)ccc3c2)c(C(N)=O)c1N [Compound 2]	–	anti-erythrocytic stage inhibition [1]: some observable anti-erythrocytic stage inhibition
> 30 µM	> 30 µM	COc1ccc2cc(-c3nn(C(C)(C)C)c(N)c3C(N)=O)cnc2c1 [Compound 4]	–	–
–	–	CCOc1ccc2cc(-c3nn(C(C)(C)C)c(N)c3C(N)=O)ccc2c1 [Compound 5]	0.287 µM	IC50 (recombinant PfPKG): 2.37 µM
–	> 30 µM	CCOc1ccc2cc(-c3nn(C(C)(C)C)c(N)c3C(N)=O)cnc2c1 [Compound 6]	–	anti-erythrocytic stage inhibition [1]: some observable anti-erythrocytic stage inhibition
–	–	CC(C)(C)n1nc(-c2cnc3cc(OC4CC4)ccc3c2)c(C(N)=O)c1N [Compound 8]	0.225 µM	–
> 30 µM	> 30 µM	CCOc1ccc2cc(-c3nn(C(C)C)c(N)c3C(N)=O)cnc2c1 [Compound 14]	–	–
> 30 µM	> 30 µM	CCOc1ccc2cc(-c3nn(CC(C)(C)CO)c(N)c3C(N)=O)cnc2c1 [Compound 17]	–	–
–	–	CCOc1ccc2cc(-c3nn(C4CCOC4)c(N)c3C(N)=O)ccc2n1 (centres unmarked) [Compound 25]	0.468 µM	IC50 (recombinant PfCDPK4): 0.103 µM
> 30 µM	> 30 µM	CCOc1ccc2cc(-c3nn(C4CCCCC4)c(N)c3C(N)=O)ccc2n1 [Compound 26]	–	anti-erythrocytic stage inhibition [1]: some observable anti-erythrocytic stage inhibition
–	–	CC(C)n1nc(-c2ccc3nc(OC4CCC4)ccc3c2)c(C(N)=O)c1N [Compound 27]	0.159 µM	–
–	–	CCOc1ccc2cc(-c3nn(CC4CCN(C)CC4)c4ncnc(N)c34)ccc2c1 [Compound 1294]	–	hERG inhibitory activity (hERG): hERG inhibitory activity at therapeutic concentrations; toxicity ([2]; initial mouse studies): low toxicity; oral availability ([2]; mouse): orally available
